From article PMC6882465, “Towards discovery of new leishmanicidal scaffolds able to inhibit Leishmania GSK-3” (Journal of Enzyme Inhibition and Medicinal Chemistry, 2019)
Like-named read-outs stand apart in the source and are kept apart here.

How the values were obtained:
hGSK-3β = hGSK-3β (Homo sapiens, UniProt P49841); test: hGSK-3β inhibition; assay type: biochemical; conditions: Table 2
LdGSK-3 = LdGSK-3 (Leishmania donovani, UniProt A6N857); test: Inhibition of LdGSK-3 with Kinase Glo; assay type: biochemical; conditions: for IC50: read-out: LdGSK-3 IC50; for % inhibition @ 10µM (initial screening on LdGSK3): Table S2; for percentage of inhibition of LdGSK-3: assayed at 10 µM
LdGSK-3, sequence (A6N857 entry or part of it): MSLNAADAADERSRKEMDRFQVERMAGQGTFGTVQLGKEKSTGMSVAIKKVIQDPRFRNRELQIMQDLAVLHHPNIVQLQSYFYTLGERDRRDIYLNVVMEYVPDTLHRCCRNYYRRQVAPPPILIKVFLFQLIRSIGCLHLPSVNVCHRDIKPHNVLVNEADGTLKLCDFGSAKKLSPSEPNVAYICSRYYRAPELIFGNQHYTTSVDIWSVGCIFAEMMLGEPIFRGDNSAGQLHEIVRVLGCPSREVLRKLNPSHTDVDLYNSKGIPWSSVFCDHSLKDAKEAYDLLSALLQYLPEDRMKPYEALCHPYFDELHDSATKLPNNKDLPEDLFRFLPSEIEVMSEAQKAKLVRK
Method: Assessment of inhibition of LdGSK-3 with Kinase Glo^TM
The reaction was allowed to proceed for 30 min at 30 °C, then it was incubated at room temperature for another 10 min after addition of Kinase Glo reagents (Promega, Ref. V6712). ATP consumption by LdGSK-3 was measured indirectly through end-point luminescence measurement of each well in a Varioskan Flash microplate reader (Thermo).

[1] = system: L. pifanoi axenic amastigotes; test: Leishmanicidal assay on axenic amastigotes (inhibition of MTT reduction); assay type: cell-based, Leishmania pifanoi; conditions: Table S1; 96 h; read-out: L. pifanoi amast. ax EC50
Method: (§1) Leishmania parasites were resuspended with the corresponding drug concentration at 2 × 10^6 parasites/mL (final concentration) in their respective growth media in 96 microwell plates (200 µL/well). The parasites were allowed to growth for 72 h at 26 °C for promastigotes and 96 h at 32 °C for axenic amastigotes. Afterwards, inhibition of proliferation was measured by the inhibition of MTT reduction by the parasites. […] MTT reduction was allowed to proceed for 2 h at the respective temperature, and the resulting formazan solubilised by addition of 50 µL/well of 10% SDS. Afterwards, the plate was read at 595 nm in a BioRad Microplate-reader, model 680. Samples were made by triplicate and assays were repeated at least twice.

[2] = system: L. infantum promastigotes; test: Leishmanicidal assay on promastigotes (inhibition of MTT reduction); assay type: cell-based, Leishmania infantum; conditions: Table S1; 72 h
Method: as §1

hGSK-3β, sequence (P49841 whole entry): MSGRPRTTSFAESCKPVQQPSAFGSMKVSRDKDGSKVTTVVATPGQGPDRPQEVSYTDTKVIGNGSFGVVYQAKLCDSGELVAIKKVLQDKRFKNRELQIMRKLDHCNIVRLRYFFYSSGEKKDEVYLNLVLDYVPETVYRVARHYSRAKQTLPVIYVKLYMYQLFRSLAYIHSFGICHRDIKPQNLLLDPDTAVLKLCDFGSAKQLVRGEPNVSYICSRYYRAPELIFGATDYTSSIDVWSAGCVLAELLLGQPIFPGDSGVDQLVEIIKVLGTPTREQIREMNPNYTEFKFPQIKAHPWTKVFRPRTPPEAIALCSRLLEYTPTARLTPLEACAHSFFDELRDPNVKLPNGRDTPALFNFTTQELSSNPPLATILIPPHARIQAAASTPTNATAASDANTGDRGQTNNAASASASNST

SMILES	% inhibition @ 10µM (initial screening on LdGSK3) (LdGSK-3) [%]	further results
COc1ccc(Nc2nccc(N(C)c3n[nH]c4c(F)cccc34)n2)cc1S(C)(=O)=O [Compound 95]	90.25±1.12	IC50 (hGSK-3β): 1400 ± 250 nM; IC50 (LdGSK-3; Table 2): 460 ± 70 nM; percentage of inhibition of LdGSK-3 (LdGSK-3): higher than 50%
CN(C)Cc1cccc(Nc2nccc(-c3ccc(NCCN)c(C#N)c3)n2)c1 [Compound 119]	100.29±1.24	IC50 (hGSK-3β): 240 ± 40 nM; IC50 (LdGSK-3; Table 2): 270 nM; percentage of inhibition of LdGSK-3 (LdGSK-3): higher than 50%
CC(=O)Nc1ccc(-c2cnc(N)c(-c3nc4ccc(F)cc4[nH]3)c2)cc1 [Compound 187]	67.81±1.17	IC50 (hGSK-3β): 1220 ± 430 nM; IC50 (LdGSK-3; Table 2): 9100 nM; percentage of inhibition of LdGSK-3 (LdGSK-3): higher than 50%
COc1ccc(CNC(=O)Nc2nc(C)c(C(C)=O)s2)cc1 [Compound 18]		EC50 [1]: > 50000 nM; EC50 [2]: > 50000 nM; LdGSK-3 % inhibition (LdGSK-3; Table S1, @10 µM): < 20%
O=C(Nc1nc2ccccc2[nH]1)c1ccc2nc[nH]c2c1 [Compound 53]	-1.60±1.50	
CN(Cc1nc2ccc(C(=O)NCC3CCCCC3)cc2[nH]1)C1CCCc2cccnc21.O=C(O)C(F)(F)F (stereo not shown) [Compound 28]	1.15±1.75	
COc1cc(Cl)c(C)cc1NC(=O)c1ccc([N+](=O)[O-])s1 [Compound 176]	8.55±1.75	
COCc1cnc2c(c1SCc1c(F)cccc1Cl)c(=O)n(C)c(=O)n2C [Compound 148]	9.60±3.10	
N#Cc1cccc(Nc2nccc(N3CCC(NS(=O)(=O)c4cccc(C#N)c4)CC3)n2)c1.O=C(O)C(F)(F)F [Compound 100]	37.05±1.50	
Nc1nc(-c2ccccn2)nc(-n2nc(-c3cccc(C(F)(F)F)c3)cc2N)n1.O=C(O)C(F)(F)F [Compound 26]	4.75±1.20	
O=C(CSc1nnc(-c2ccc3c(c2)OCO3)o1)N(Cc1ccco1)CC(F)(F)F [Compound 184]	53.23±3.29	percentage of inhibition of LdGSK-3 (LdGSK-3): higher than 50%
O=C(Nc1cccc(Cl)c1)Nc1ccc([N+](=O)[O-])cc1Cl [Compound 89]	4.80±2.05	
COc1ccc(-c2csc(NC(=O)c3ccc([N+](=O)[O-])s3)n2)cc1OC [Compound 142]	7.95±2.05	
C=CCN(Cc1cccs1)C(=O)CSc1nnc(-c2ccc3c(c2)OCO3)o1 [Compound 206]	10.00±0.90	
COc1ccc(C2=NCC(CSc3nnc(-c4ccc5c(c4)OCO5)o3)S2)cc1 (stereo not shown) [Compound 125]	10.60±1.00	
COCc1cc(Nc2cccc(Cl)c2)nc(-c2ccccn2)n1 [Compound 39]	9.00±3.05	
Cc1ccc(NC(C)C(=O)Nc2ccc(C#N)cc2)cc1S(=O)(=O)N1CCCCC1 (stereo not shown) [Compound 137]	9.35±1.30	
O=C(CN(Cc1ccccn1)Cc1ccccn1)NCc1ccc(-c2csnn2)cc1.O=C(O)C(F)(F)F [Compound 154]	2.50±1.45	
COc1ccccc1C(=O)Nc1nnc(-c2ccc3c(c2)OCO3)s1 [Compound 162]	9.20±3.30	
COc1ccc(-c2csc(NC(=O)c3ccc([N+](=O)[O-])s3)n2)cc1 [Compound 201]	18.65±3.35	
COc1cc2c(cc1OC)[C@H]1[C@@H](C)c3ccc(OC)c(OC)c3CN1CC2 [Compound 130]	12.85±2.80	
CCS(=O)(=O)Nc1ccc(C2=NN(C(=O)c3cccs3)C(c3ccccc3OC)C2)cc1 (stereo not shown) [Compound 108]	5.15±1.90	
N#CN1CC[C@@H](NC(=O)Nc2ccccc2Oc2ccccc2)C1 [Compound 72]	7.40±4.30	
O=C1Nc2ccc(S(=O)(=O)O)cc2C1=C1Nc2ccccc2C1=NO [Indirubin-3’-monoxime-5-sulphonic acid, reference compound]		IC50 (LdGSK-3; Table 1): 2400 nM
CCn1c(NC(=O)Cc2ccc(F)cc2)nc2ccccc21 [Compound 138]	13.00±3.55	
COc1ccc([N+](=O)[O-])cc1NC(=O)c1cc(Cl)ccc1O [Compound 210]	17.65±3.55	
COc1ccc(-c2cc(C)no2)cc1S(=O)(=O)Nc1ccc(C)c(C)c1 [Compound 170]	13.20±1.65	
O=C(CN(Cc1ccccn1)Cc1ccccn1)NCc1csc(-c2cccs2)n1.O=C(O)C(F)(F)F [Compound 68]	6.80±1.95	

SMILES	% inhibition @ 10µM (initial screening on LdGSK3) (LdGSK-3) [%]	further results
Br.Nc1nccc(-c2csc(Nc3ccc(Cl)cc3)n2)n1 [Compound 101]	16.40±2.40	
CCN(CC)c1nc(Nc2ccncc2)nc2ccccc12 [Compound 36]	7.10±1.90	
Oc1c(-c2n[nH]c(Cc3ccc(Cl)cc3)n2)ncc2cccnc12 [Compound 52]	5.05±2.35	
CC(C)Nc1nc(Cl)nc2ccccc12 [Compound 106]	-4.60±0.90	
COc1cc(OC)cc(C(NS(=O)(=O)c2ccc(Cl)c(C(F)(F)F)c2)c2nccn2C)c1 (stereo not shown) [Compound 139]	15.95±1.70	
CCOc1ccc2nc(NC(=O)c3ccc([N+](=O)[O-])s3)sc2c1 [Compound 145]	9.25±0.40	
O=C(c1ccc(O)c(Cl)c1)N1CCN(c2cnccn2)CC1 [Compound 96]	1.65±2.40	
Cn1ccnc1-c1nc(NCc2ccccc2Cl)cc(C2CC2)n1.O=C(O)C(F)(F)F [Compound 129]	8.90±6.75	
Cc1ccc2c(c1)SC(C(=O)Nc1n[nH]c(-c3ccccn3)n1)C2 (stereo not shown) [Compound 115]	3.20±0.80	
Cc1nc2c(-c3nc(-c4ccc(N)cc4)n[nH]3)cccn2c1C [Compound 111]	7.35±4.65	
c1ccc(-c2nc(NCc3ccco3)c3ccccc3n2)nc1 [Compound 87]	-0.05±0.95	
COc1ccc2ncc(=O)n(CCN3CCC(NCc4ccc(-c5cccs5)cc4)CC3)c2n1 [Compound 200]	20.95±1.30	
CC(C)(C)c1cc(NC2CC2)nc(-c2ccccn2)n1 [Compound 50]	4.70±2.30	
Cc1ccc(Nc2nc(C3CCCN3Cc3ccn[nH]3)cs2)nc1 (stereo not shown) [Compound 65]	-0.35±2.35	
O=C(c1ccc(Cl)cc1)c1ccc(OC(=O)N2CCOCC2)cc1 [Compound 163]	3.10±0.70	
Cc1cc(C)n(-c2nc(NC(C)(C)C)nc(N3CCOCC3)n2)n1 [Compound 196]	-2.80±6.35	
CC(C)c1sc(Cl)nc1C(=O)NCCc1nc(C(=O)Nc2ccc3c(c2)OCO3)cs1 [Compound 60]	0.20±2.80	
CCN(Cc1cccs1)C(=O)CSc1nnc(-c2ccc3c(c2)OCO3)o1 [Compound 197]	10.05±1.90	
Cc1cc(C)n(-c2nc(NC(C)C)nc(NC(C)(C)C)n2)n1 [Compound 158]	7.85±3.95	
O=C(Nc1nc(-c2ccccn2)cs1)C1CCc2ccccc2C1 (stereo not shown) [Compound 54]	0.10±1.10	
CCOc1cc(NCCCN2CCN(C)CC2)c2ncccc2c1.Cl.Cl.Cl [Compound 112]	7.50±0.65	
O=C(CCc1ccc(-c2ccccc2)o1)N1CCN(c2ccc(O)cc2)CC1 [Compound 178]	28.65±1.95	
O=C(Nc1ccc(S(=O)(=O)N2CCCC2)cc1)c1ccc([N+](=O)[O-])s1 [Compound 59]	16.15±4.10	
CCCc1cc(N)nc(-c2cc(CCC)cc(N)n2)c1 [Compound 33]	-0.35±3.85	
Cc1cn[nH]c1C1CCCN(Cc2nc3ccccc3n2C)C1 (stereo not shown) [Compound 114]	2.85±0.45	
COc1ccc(Oc2ccc(C(C)N(C)c3ncc4c(N)nc(N)nc4n3)cc2)cc1 (stereo not shown) [Compound 56]	0.50±2.95	
O=C(Cc1ccc2c(c1)CCC2)Nc1n[nH]c(-c2ccccn2)n1 [Compound 123]	12.15±3.90	
